These results are taken from ChEMBL document CHEMBL1201862, “PubChem BioAssay data set” (2004).

In experiment [1] the target is Eukaryotic translation initiation factor 4H (Homo sapiens, UniProt Q15056). Description: eIF4H binding inhibition – biochemical, uHTS, fluorescence polarization, translation initiation inhibitor project, primary screen (AID 2012).
In experiment [2] the target is Polyadenylate-binding protein 1 (Homo sapiens, UniProt P11940). Kind of experiment: blockers of PABP interaction with poly(A) – biochemical, fluorescence polarization, […] (AID 2014). In general terms: In fluorescence polarisation assays a small probe gives low polarisation when free and higher when bound to something large.
The target of another experiment is Trypsin (Sus scrofa, UniProt P00761). Kind of experiment: trypsin protease activity blockade – biochemical, quenched peptide fluorescence, cherry-pick, selectivity assay for Rce1 protease inhibitor project, dose response (AID 488789).
Another experiment deals with T1, CAAX prenyl protease 2 (Saccharomyces cerevisiae S288c, UniProt Q03530).
T1 sequence (Q03530 whole entry): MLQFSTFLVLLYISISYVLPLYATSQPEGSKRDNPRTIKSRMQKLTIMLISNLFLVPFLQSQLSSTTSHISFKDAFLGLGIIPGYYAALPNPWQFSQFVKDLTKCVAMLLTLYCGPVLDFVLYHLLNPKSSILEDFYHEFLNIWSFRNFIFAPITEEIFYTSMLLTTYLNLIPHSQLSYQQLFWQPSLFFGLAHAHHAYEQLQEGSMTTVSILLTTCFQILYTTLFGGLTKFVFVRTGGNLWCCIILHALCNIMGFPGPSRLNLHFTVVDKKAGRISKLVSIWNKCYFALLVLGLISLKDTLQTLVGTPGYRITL
In kind it is biochemical.

Experiment [3] can be described thus: NIH-3T3 fibroblast cytotoxicity, dose response, cytotoxicity control, cell-based, fluorescence, Alamar Blue, secondary assay (AID 2327).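 Also: NIH-3T3 mouse fibroblasts cultured with fluconazole at 8 µg/mL.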 In kind it is functional. Background: Alamar Blue is a resazurin reagent that responds to reducing activity.
Experiment [4] in a line: Counterscreen for IDE inhibitors: Luminescence-based cell-based high throughput dose response assay to identify compounds that are cytotoxic to HEK cells. [Related pubchem assays: 434962 (Primary screen (IDE inhibitors in singlicate)), 449730 (Counterscreen (Cytotoxicity in triplicate)), 435028 (Confirmation (IDE inhibitors in triplicate)) …. It counts as functional. As to conditions: HEK293. On the technique in general: Counterscreens check selectivity or assay interference.

The nature of experiment [5]: fluconazole-exposed Candida albicans growth modulators – fluorescence, retest, confirmation (AID 2467). It counts as functional, cell-based.
Experiment [6] in a line: HPDE-C7 pancreatic duct cell viability loss – fluorescence, HTS (AID 430). In kind it is functional, cell-based. As to conditions: Homo sapiens.
Experiment [7] can be described thus: microbe, parasite or virus in culture. As to conditions: Mycobacterium tuberculosis. It counts as functional.
A short description of experiment [8]: viability loss of HPDE-C7K cells – cell-based, fluorescence, HTS, primary screen (AID 431). In kind it is functional. As to conditions: Homo sapiens.
The target in the next experiment is T2, Insulin-degrading enzyme (Homo sapiens, UniProt P14735).
T2 sequence (P14735 whole entry): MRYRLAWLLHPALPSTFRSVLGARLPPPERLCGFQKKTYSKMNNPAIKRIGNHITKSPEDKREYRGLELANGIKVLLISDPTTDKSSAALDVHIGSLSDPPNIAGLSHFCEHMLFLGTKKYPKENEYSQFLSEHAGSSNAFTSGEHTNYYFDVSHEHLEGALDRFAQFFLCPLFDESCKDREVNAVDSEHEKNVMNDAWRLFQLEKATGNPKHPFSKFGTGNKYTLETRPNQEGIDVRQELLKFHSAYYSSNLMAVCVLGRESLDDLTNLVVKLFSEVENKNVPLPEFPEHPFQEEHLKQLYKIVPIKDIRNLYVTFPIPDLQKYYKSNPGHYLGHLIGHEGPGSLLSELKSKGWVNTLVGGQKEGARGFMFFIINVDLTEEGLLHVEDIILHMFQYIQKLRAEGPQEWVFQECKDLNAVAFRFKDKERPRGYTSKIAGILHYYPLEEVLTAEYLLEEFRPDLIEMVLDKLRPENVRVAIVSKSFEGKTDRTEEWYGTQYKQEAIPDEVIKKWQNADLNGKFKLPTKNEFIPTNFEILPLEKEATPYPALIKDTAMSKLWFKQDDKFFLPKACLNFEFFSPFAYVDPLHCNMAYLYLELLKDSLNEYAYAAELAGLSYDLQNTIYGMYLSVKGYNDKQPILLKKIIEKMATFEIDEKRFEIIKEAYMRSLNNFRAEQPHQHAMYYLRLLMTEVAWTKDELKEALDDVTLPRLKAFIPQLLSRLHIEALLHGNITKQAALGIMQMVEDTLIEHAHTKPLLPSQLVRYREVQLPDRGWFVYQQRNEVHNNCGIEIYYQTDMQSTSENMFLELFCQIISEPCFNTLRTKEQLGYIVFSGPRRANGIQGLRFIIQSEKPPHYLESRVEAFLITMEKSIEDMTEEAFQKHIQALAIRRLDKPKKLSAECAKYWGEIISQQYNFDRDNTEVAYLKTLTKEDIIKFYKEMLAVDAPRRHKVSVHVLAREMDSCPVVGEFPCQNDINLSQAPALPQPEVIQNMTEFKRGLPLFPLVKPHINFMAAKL
Description: Dose Response: Fluorescence polarization-based cell-based high throughput dose response assay for inhibitors of insulin-degrading enzyme (IDE). [Related pubchem assays: 434962 (Primary screen (IDE inhibitors in singlicate)), 449730 (Counterscreen (Cytotoxicity in triplicate)), 435028 (Confirmation (IDE inhibitors in triplicate)), 434984 (Summary …. It counts as functional.

Experiment [9] addresses C-C chemokine receptor type 6 (Homo sapiens, UniProt P51684). Kind of experiment: antagonism of CCR6 beta-arrestin recruitment – cell-based, luminescent beta-arrestin readout, dose response (AID 504728). In kind it is functional.
A further experiment deals with Beta-galactosidase (Escherichia coli, UniProt Q8VNN2). Description: detection-enzyme interference by beta-gal modulators – biochemical, E. coli enzyme, set 3, artefact control for CCR6 antagonist project, dose response (AID 504712). In kind it is functional.
A further experiment deals with INS1. Kind of experiment: INS-1E survival protection against cytokine death – cell-based, luminescence, retest, dose response (AID 449756).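 Also: cell death triggered by IL-1 beta plus TNF-alpha plus IFN-gamma mixture; protective hits raise ATP signal compared with cytokine alone wells.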 In kind it is functional. As to conditions: Rattus norvegicus.
Experiment [10] in a line: blockers of HIV-1 envelope-mediated cell-cell fusion – cherry-pick, dose response (AID 652057). It counts as functional, cell-based.
Experiment [11] can be described thus: viability loss in CEM21 cells – cell-based, CellTiter-Glo luminescence, cherry-picked, cytotoxicity control for viral fusion inhibitor project, dose response (AID 652042).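 Also: potency for signal decrease meaning cytotoxicity.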 In kind it is functional.
Experiment [12] can be described thus: blockers of HIV-1 ZM109 envelope-driven cell-cell fusion – HeLa effector, CEM target cells, luciferase, cherry-pick, dose response (AID 652058).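 Also: luciferase signal from HIV-1 Env mediated cell-cell fusion of effector and target cells.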 It counts as functional, cell-based.
Experiment [13] in a line: HIV-1 AD8 envelope cell-cell fusion blockers – cherry-pick, dose response (AID 652062).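 Also: luciferase signal from cell-cell fusion driven by HIV-1 clade B AD8 Env; potency is for inhibitors of fusion seen as a drop in luminescence.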 In kind it is functional, cell-based.
The target in experiment [14] is DNA dC->dU-editing enzyme APOBEC-3A (Homo sapiens, UniProt P31941). Kind of experiment: A3A deaminase inhibition for selectivity – biochemical, dose response (AID 504722). It counts as functional.
The target in experiment [15] is DNA dC->dU-editing enzyme APOBEC-3G (Homo sapiens, UniProt Q9HC16). Description: Dose Response confirmation of small molecule APOBEC3G DNA Deaminase Inhibitors via a fluorescence-based single-stranded DNA deaminase assay. [Related pubchem assays (depositor defined):AID493012, AID493028]. It counts as functional.
Experiment [16] concerns the target T3, Heat shock factor protein 1 (Mus musculus, UniProt P38532).
T3 sequence (P38532 whole entry): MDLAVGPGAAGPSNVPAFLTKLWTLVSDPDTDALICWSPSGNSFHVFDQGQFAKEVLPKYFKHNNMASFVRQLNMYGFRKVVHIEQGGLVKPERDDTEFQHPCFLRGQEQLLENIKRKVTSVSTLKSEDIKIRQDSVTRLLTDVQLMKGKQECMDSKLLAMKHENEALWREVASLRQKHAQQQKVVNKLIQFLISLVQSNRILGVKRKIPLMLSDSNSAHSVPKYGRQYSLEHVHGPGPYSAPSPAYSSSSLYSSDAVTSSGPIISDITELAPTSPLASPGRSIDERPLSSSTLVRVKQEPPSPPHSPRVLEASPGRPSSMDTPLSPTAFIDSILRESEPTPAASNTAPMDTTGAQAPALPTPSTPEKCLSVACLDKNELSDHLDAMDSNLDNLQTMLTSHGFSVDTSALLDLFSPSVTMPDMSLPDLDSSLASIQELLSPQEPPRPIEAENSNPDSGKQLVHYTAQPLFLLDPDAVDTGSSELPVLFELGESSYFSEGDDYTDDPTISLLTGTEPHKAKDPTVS
Kind of experiment: decrease of HSF1-responsive luciferase luminescence – cell-based, NIH3T3, dose retest, confirmation (AID 2382).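 Also: NIH3T3 fibroblasts with HSF1-driven luciferase reporter stressed by proteasome inhibitor MG132; luminescence from HSF1-driven luciferase expression after 8 hours of MG132 stress.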 In kind it is functional.

Experiment [17] concerns the target Glucose-6-phosphate 1-dehydrogenase (Homo sapiens, UniProt P11413). Description: inhibition of Homo sapiens G6PD, dose series – biochemical, fluorescence, selectivity assay for P. falciparum G6PD inhibitor project, dose response (AID 504792). In kind it is functional.

Calls of active or inactive are those of the source. Bounds are passed on as bounds.

Chain of Polyadenylate-binding protein 1 (P11940 whole entry): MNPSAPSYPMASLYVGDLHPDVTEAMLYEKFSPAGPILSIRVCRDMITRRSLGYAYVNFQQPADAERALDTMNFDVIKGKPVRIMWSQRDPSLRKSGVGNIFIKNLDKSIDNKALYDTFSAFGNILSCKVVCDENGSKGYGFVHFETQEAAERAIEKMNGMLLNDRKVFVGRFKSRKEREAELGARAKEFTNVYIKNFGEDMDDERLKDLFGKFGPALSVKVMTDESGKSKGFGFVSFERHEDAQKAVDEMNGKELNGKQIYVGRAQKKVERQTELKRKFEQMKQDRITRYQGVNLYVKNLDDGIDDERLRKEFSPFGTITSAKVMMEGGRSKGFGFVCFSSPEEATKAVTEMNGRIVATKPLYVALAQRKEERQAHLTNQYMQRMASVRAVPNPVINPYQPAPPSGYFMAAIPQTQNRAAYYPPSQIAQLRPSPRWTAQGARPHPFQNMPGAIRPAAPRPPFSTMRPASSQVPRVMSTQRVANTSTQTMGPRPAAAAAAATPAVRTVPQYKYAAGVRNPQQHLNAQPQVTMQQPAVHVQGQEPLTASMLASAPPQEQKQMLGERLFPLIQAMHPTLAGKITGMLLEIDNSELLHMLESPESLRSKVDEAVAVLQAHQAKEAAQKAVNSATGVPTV
Chain of DNA dC->dU-editing enzyme APOBEC-3A (P31941 whole entry): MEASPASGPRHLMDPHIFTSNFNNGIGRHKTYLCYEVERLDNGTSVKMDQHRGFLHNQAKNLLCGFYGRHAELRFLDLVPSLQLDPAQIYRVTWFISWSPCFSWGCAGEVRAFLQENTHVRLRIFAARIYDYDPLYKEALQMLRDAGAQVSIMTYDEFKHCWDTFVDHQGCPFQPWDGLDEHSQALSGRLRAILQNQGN
Chain of DNA dC->dU-editing enzyme APOBEC-3G (Q9HC16 whole entry): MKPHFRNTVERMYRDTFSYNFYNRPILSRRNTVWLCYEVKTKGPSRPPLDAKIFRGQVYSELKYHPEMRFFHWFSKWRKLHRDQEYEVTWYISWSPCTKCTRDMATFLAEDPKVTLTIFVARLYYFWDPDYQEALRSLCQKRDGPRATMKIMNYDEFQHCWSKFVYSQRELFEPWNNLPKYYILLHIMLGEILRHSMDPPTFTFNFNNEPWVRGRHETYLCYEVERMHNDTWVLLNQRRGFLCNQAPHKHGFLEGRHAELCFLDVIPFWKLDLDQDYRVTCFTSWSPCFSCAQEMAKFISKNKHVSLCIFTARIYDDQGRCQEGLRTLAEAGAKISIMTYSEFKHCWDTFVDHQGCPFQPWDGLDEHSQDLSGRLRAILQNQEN
Chain of Beta-galactosidase (Q8VNN2 whole entry): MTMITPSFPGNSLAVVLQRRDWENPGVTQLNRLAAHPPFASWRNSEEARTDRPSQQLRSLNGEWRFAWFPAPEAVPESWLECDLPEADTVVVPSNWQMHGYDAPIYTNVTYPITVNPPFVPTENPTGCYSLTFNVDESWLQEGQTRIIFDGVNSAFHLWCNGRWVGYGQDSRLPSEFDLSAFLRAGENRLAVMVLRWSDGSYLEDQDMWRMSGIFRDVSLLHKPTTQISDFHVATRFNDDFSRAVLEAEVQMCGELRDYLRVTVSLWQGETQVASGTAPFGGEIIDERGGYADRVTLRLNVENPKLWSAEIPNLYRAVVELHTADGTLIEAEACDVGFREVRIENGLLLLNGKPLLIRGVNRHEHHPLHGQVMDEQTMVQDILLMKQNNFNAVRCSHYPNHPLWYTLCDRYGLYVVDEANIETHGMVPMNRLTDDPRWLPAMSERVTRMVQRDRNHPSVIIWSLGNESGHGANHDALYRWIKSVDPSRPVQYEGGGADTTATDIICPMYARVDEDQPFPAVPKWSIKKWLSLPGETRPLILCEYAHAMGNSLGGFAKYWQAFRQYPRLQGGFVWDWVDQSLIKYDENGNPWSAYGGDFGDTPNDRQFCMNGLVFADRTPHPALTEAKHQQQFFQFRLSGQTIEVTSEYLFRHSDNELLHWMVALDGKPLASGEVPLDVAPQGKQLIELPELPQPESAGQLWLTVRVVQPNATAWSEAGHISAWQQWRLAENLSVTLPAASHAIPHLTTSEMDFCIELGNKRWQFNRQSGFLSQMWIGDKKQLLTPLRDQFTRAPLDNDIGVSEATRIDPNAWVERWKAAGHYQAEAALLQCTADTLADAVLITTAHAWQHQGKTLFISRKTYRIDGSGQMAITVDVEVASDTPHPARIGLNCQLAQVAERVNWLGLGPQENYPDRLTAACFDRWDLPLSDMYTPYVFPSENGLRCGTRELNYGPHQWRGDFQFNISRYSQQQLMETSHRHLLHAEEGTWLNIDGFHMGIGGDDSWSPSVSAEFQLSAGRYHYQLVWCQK
Chain of Trypsin (P00761 whole entry): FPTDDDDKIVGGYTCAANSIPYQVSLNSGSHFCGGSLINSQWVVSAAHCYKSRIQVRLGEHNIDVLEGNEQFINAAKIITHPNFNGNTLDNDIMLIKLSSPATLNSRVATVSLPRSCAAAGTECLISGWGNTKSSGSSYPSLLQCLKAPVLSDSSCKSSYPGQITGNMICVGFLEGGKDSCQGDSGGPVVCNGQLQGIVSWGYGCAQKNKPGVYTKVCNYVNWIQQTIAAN
Chain of Glucose-6-phosphate 1-dehydrogenase (P11413 whole entry): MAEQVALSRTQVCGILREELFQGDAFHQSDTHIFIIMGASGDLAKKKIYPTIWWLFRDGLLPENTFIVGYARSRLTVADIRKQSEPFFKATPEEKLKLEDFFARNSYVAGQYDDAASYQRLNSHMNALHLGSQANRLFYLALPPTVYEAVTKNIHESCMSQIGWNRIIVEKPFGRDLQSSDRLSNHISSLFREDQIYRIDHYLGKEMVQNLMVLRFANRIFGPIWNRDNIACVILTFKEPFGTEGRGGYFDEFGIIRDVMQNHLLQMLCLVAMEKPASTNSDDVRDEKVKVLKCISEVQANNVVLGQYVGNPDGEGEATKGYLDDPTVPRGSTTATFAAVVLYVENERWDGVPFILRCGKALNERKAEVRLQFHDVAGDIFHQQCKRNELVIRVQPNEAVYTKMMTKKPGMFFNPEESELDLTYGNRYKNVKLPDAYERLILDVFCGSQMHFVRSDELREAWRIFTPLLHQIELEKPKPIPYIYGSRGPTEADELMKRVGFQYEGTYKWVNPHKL
Chain of C-C chemokine receptor type 6 (P51684 whole entry): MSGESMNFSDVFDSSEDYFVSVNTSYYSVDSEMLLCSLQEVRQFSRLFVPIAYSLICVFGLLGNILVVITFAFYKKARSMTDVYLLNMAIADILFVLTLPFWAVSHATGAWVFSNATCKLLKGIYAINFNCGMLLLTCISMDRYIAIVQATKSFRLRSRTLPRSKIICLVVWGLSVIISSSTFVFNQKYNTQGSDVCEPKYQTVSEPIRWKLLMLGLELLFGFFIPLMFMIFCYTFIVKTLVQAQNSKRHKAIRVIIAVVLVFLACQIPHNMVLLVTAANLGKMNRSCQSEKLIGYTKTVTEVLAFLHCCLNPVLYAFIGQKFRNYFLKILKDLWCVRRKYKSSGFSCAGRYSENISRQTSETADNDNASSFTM

For `CCC(c1nnc(SCCNCCO)n1CCN1CCOCC1)N(C)C` (stereo unspecified), the IC50 in [1] was > 100 µM (inactive); in [2] it was 7.33 µM (active).
Regarding `Nc1ccc2c(C(F)(F)F)cc(C(F)(F)F)nc2n1`, the results for the AC50 on Trypsin and at CAAX prenyl protease 2 were 10.7 µM (active) and > 100 µM (inactive), respectively.
Consider `CCCn1c(Nc2nc3ccccc3n2C)nc2ccccc21`, for which the EC50 in experiment [3] is > 160 µM (inconclusive); in experiment [5], 1.33 µM (active); in [6] it was 6.72 µM (active); in experiment [8], 7.01 µM (active). The IC50 is 14.4 µM (not active) in experiment [4], > 55.9 µM (not active) against Insulin-degrading enzyme, > 66.6 µM (inactive) in experiment [9] and > 66.6 µM (inactive) at Beta-galactosidase. The CC50 in [7] was 13.4 µM (active). For the same molecule, the AC50 with INS1 is 7.73 µM (active); in [10], 10.1 µM (active); in experiment [11], 8.31 µM (active); in experiment [12], 8.59 µM (active); in experiment [13], 10.4 µM (active).
For the molecule `C=CCn1c(OCc2ccccc2)n[nH]c1=S`, the IC50 is > 100 µM (inactive) in experiment [14] and 7.3 µM (active) in [15].
Take `CC(C)Oc1ccc(OCCSc2nc3ccccc3n2CC(=O)O)cc1`: the IC50 is > 100 µM (inactive) in experiment [1] and 11.5 µM (active) in experiment [2]. The EC50 in [16] is on record as > 195 µM (not active).
In the case of `COc1ccccc1NS(=O)(=O)c1cc(NC(=O)c2ccc(Cl)nc2)ccc1N1CCCC1`, the IC50 in [14] was > 100 µM (inactive); in [17], > 80 µM (inactive); in [15], 14.3 µM (active).

By IC50 is commonly meant the concentration at which inhibition is half-maximal. Usually AC50 stands for the concentration giving half of the maximal activity seen. As a reminder, the EC50 is the concentration that produces a half-maximal response.
